Patent US20260248869A1, “SILICONE GEL COMPOSITION OF WALNUT EXTRACT” (priority 2022, published 2026)

Experiment: Confocal optical microscopy of Juglone penetration depth in human skin
Assay type: in vitro ADME
Conditions: epidermal region; signal disappeared at greater depths
Source text: The penetration in human skin was also studied by confocal microscopy, using the fluorescence of the Juglone molecule exciting it with light of 488 nm and observing its fluorescence in a window from 510 to 702 nm. For this penetration study, a Leica microscope, model SPE Confocal Microscope was used, with a 10×lens. The location of the Juglone molecules in depth was established with this instrument (in perpendicular direction to the skin surface). The accumulation of Juglone at different depth levels causes the appearance of areas with different fluorescence intensity and allows to observe directly where the molecule is retained. It must be noted that white Caucasian skins were chosen to prevent interferences of basal fluorescence and thus clearly observe the fluorescence of the Juglone molecule.
The transdermal permeation study was performed according to the “Guidance document for the conduct of skin absorption studies”. OECD series on testing assessment. Number 28. ENV/JM/MONO (2004) 2.5 Mar. 2004. Using Franz type cells, of 1.80 cm in diameter, and a surface of 2.54 cm^2. The permeation membrane used was human skin of the abdominal area (0.400 mm thick) from repair surgery and previously treated. This thickness covers the epidermis and dermis above the vascular plexus. […]

## O=C1C=CC(=O)c2c(O)cccc21 [Juglone, 5-hydroxy-1,4-naphthalenedione]
  Depth at which the specific fluorescence of Juglone is maintained: less than 120 μm
